Starred links: 1 amine or outer side, 2 acyl side, 3 side chain; linkers in the order of their positions; H or OH if unused. Non-standard residues stand in square brackets, D forms with d. Residues, ends and D or L forms follow the SMILES beside them. Groups on a side chain read outwards from the residue. *: point of attachment. C18 diacid = O=C(O)CCCCCCCCCCCCCCCCC(=O)*; αMePhe(2-F) = C[C@](N)(Cc1ccccc1F)C(=O)O; γGlu = O=C(O)[C@H](CCC(=O)[*:2])N[*:1]; αMeY = C[C@](N)(Cc1ccc(O)cc1)C(=O)O; 4Pal = N[C@@H](Cc1ccncc1)C(=O)O; αMeL = CC(C)C[C@](C)(N)C(=O)O; αMeS = C[C@](N)(CO)C(=O)O; Orn = NCCC[C@H](N)C(=O)O; AEEA = NCCOCCOCC(=O)O; Aib = CC(C)(N)C(=O)O
Key:
Assay type in all cases: cell-based
hGIPR [1] = molecular target: T1, hGIPR (Homo sapiens, UniProt P48546); assay: Functional cAMP activity in the presence of 1% HSA; settings: read-out: cAMP Rel EC50, hGIPR
T1 sequence (P48546 22-466): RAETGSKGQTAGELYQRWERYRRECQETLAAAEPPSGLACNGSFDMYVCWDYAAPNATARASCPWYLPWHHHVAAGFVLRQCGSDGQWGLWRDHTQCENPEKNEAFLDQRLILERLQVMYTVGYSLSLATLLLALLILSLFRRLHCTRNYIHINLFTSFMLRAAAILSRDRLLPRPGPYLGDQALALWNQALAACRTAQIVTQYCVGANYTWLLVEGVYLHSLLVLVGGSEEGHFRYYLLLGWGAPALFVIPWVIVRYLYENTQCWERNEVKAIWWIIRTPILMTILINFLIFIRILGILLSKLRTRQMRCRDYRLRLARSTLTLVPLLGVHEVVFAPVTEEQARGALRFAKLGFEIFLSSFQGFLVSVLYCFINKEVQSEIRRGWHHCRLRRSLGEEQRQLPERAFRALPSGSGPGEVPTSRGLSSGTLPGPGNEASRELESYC

human GcgR = human GcgR (Homo sapiens, UniProt P47871); assay: Functional cAMP activity in the presence of 1% HSA; settings: read-out: cAMP Rel EC50, hGcgR
human GcgR, sequence (P47871 26-477): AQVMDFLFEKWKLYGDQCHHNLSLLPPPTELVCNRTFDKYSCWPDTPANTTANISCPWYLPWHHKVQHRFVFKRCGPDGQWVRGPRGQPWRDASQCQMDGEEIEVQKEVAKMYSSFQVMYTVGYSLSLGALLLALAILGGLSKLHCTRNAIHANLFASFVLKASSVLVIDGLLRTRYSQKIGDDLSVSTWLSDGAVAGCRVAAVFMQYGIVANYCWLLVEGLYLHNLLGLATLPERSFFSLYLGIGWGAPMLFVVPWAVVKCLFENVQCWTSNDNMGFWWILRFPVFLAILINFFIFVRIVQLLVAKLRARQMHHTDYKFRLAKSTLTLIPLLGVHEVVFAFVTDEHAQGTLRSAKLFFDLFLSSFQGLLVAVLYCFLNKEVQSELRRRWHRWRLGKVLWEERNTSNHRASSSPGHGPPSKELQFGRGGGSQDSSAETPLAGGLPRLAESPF

hGLP-1R [2] = molecular target: T2, hGLP-1R (Homo sapiens, UniProt P43220); assay: Functional cAMP activity in the presence of 1% HSA; settings: read-out: cAMP Rel EC50, hGLP-1R
T2 sequence (P43220 24-463): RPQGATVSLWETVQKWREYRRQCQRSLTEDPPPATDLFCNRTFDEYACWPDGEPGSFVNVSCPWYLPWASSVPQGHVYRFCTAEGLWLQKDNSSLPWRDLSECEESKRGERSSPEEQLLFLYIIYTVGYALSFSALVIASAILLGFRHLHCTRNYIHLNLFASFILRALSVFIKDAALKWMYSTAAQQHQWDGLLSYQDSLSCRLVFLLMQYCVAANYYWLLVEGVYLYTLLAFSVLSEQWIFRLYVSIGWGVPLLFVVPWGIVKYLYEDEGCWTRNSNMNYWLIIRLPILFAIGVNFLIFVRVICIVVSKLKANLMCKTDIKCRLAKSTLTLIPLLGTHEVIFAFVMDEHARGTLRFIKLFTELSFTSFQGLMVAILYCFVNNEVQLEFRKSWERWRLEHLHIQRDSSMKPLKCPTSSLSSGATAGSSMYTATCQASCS

hGLP-1R [3] = molecular target: T2, hGLP-1R; assay: Functional cAMP activation in the presence of 0.1% casein (no HSA); settings: read-out: Relative cAMP EC50, hGLP-1R;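 as to Relative cAMP EC50, hGIPR: intracellular cAMP rise after 30 min at 37 °C read by HTRF against a standard curve, scaled between buffer alone (0%) and top control ligand concentration (100%), four-parameter fit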;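 as to Relative cAMP EC50, hGLP-1R: intracellular cAMP rise after 30 min at 37 °C read by HTRF, normalized between buffer only (0%) and maximal control ligand (100%), four-parameter variable-slope fit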;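 as to Relative cAMP EC50, hGcgR: intracellular cAMP rise after 30 min at 37 °C, read by HTRF against a cAMP standard curve, scaled from buffer only (0%) to maximal control ligand response (100%)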
hGIPR [4] = molecular target: T1, hGIPR; assay: as above; settings: read-out: Relative cAMP EC50, hGIPR
hGcgR = hGcgR (Homo sapiens, UniProt P47871); assay: as above; settings: read-out: Relative cAMP EC50, hGcgR;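 also: intracellular cAMP rise after 30 min at 37 °C, read by HTRF against a cAMP standard curve, scaled from buffer only (0%) to maximal control ligand response (100%)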
hGcgR, sequence (P47871 26-477): as the sequence (P47871 26-477) above

| SMILES | EC50 (hGIPR [1]) [nM] | EC50 (human GcgR) [nM] | EC50 (hGLP-1R [2]) [nM] | EC50 (hGLP-1R [3]) [nM] | EC50 (hGIPR [4]) [nM] | EC50 (hGcgR) [nM] |
| --- | --- | --- | --- | --- | --- | --- |
| CC[C@H](C)[C@H](NC(=O)[C@H](Cc1ccccc1)NC(=O)[C@H](C)NC(=O)C(C)(C)NC(=O)[C@H](CCC(N)=O)NC(=O)[C@H](C)NC(=O)[C@H](CCCCNC(=O)COCCOCCNC(=O)CC[C@H](NC(=O)CCCCCCCCCCCCCCCCC(=O)O)C(=O)O)NC(=O)[C@H](CCCCN)NC(=O)[C@H](CC(=O)O)NC(=O)[C@H](CC(C)C)NC(=O)[C@](C)(CC(C)C)NC(=O)[C@@H](NC(=O)[C@H](CO)NC(=O)[C@H](Cc1ccncc1)NC(=O)[C@H](CC(=O)O)NC(=O)[C@H](CO)NC(=O)[C@@H](NC(=O)[C@](C)(Cc1ccccc1F)NC(=O)[C@@H](NC(=O)CNC(=O)[C@H](CCC(N)=O)NC(=O)C(C)(C)NC(=O)[C@@H](N)Cc1ccc(O)cc1)[C@@H](C)O)[C@@H](C)O)[C@@H](C)CC)C(=O)N[C@@H](CCC(=O)O)C(=O)N[C@@H](Cc1ccc(O)cc1)C(=O)N[C@@H](CC(C)C)C(=O)N[C@@H](CCC(=O)O)C(=O)N[C@@H](CCC(=O)O)C(=O)NCC(=O)NCC(=O)N1CCC[C@H]1C(=O)N[C@@H](CO)C(=O)N[C@@H](CO)C(=O)NCC(=O)N[C@@H](C)C(=O)N1CCC[C@H]1C(=O)N1CCC[C@H]1C(=O)N1CCC[C@H]1C(=O)N[C@@H](CCC(=O)O)C(N)=O [Example 445] (H-Y[Aib]QGT[αMePhe(2-F)]TSD[4Pal]SI[αMeL]LDKK([AEEA-γGlu-C18 diacid])AQ[Aib]AFIEYLEEGGPSSGAPPPE-NH2) | 2.41 | 448 | 23.2 | 0.731 | 0.0206 | 10.1 |
| CC[C@H](C)[C@H](NC(=O)[C@H](Cc1ccccc1)NC(=O)[C@H](C)NC(=O)C(C)(C)NC(=O)[C@H](CCC(N)=O)NC(=O)[C@H](C)NC(=O)[C@H](CCCCNC(=O)CC[C@H](NC(=O)CC[C@H](NC(=O)CCCCCCCCCCCCCCCCC(=O)O)C(=O)O)C(=O)O)NC(=O)[C@H](CCCCN)NC(=O)[C@H](CC(=O)O)NC(=O)[C@H](CC(C)C)NC(=O)[C@](C)(CC(C)C)NC(=O)[C@@H](NC(=O)[C@H](CO)NC(=O)[C@H](Cc1ccncc1)NC(=O)[C@H](CC(=O)O)NC(=O)[C@H](CO)NC(=O)[C@@H](NC(=O)[C@](C)(Cc1ccccc1F)NC(=O)[C@@H](NC(=O)CNC(=O)[C@H](CCC(N)=O)NC(=O)C(C)(C)NC(=O)[C@@H](N)Cc1ccc(O)cc1)[C@@H](C)O)[C@@H](C)O)[C@@H](C)CC)C(=O)N[C@@H](CCC(=O)O)C(=O)N[C@@H](Cc1ccc(O)cc1)C(=O)N[C@@H](CC(C)C)C(=O)N[C@@H](CO)C(=O)N[C@@H](CCC(=O)O)C(=O)NCC(=O)NCC(=O)N1CCC[C@H]1C(=O)N[C@@H](CO)C(=O)N[C@@H](CO)C(=O)NCC(=O)N[C@@H](C)C(=O)N1CCC[C@H]1C(=O)N1CCC[C@H]1C(=O)N1CCC[C@H]1C(=O)N[C@@H](CO)C(N)=O [Example 446] (H-Y[Aib]QGT[αMePhe(2-F)]TSD[4Pal]SI[αMeL]LDKK([γGlu-γGlu-C18 diacid])AQ[Aib]AFIEYLSEGGPSSGAPPPS-NH2) | 3.01 | 516 | 24.5 | 0.696 | 0.0351 | 8.34 |

The next lines start with the values.

| EC50 (hGIPR [1]) [nM] | EC50 (human GcgR) [nM] | EC50 (hGLP-1R [2]) [nM] | EC50 (hGLP-1R [3]) [nM] | EC50 (hGIPR [4]) [nM] | EC50 (hGcgR) [nM] | SMILES |
| --- | --- | --- | --- | --- | --- | --- |
| 1.74 | 1280 | 54.6 | 0.352 | 0.0106 | 6.49 | CC[C@H](C)[C@H](NC(=O)[C@H](CCCN)NC(=O)[C@H](CC(=O)O)NC(=O)[C@H](CC(C)C)NC(=O)[C@](C)(CC(C)C)NC(=O)[C@@H](NC(=O)[C@](C)(CO)NC(=O)[C@H](Cc1ccncc1)NC(=O)[C@H](CC(=O)O)NC(=O)[C@H](CO)NC(=O)[C@@H](NC(=O)[C@](C)(Cc1ccccc1F)NC(=O)[C@@H](NC(=O)CNC(=O)[C@H](CCC(N)=O)NC(=O)C(C)(C)NC(=O)[C@@H](N)Cc1ccc(O)cc1)[C@@H](C)O)[C@@H](C)O)[C@@H](C)CC)C(=O)N[C@@H](C)C(=O)N[C@@H](CCC(N)=O)C(=O)NC(C)(C)C(=O)N[C@@H](CCCN)C(=O)N[C@@H](Cc1ccccc1)C(=O)N[C@H](C(=O)N[C@H](CCC(=O)O)C(=O)N[C@@](C)(Cc1ccc(O)cc1)C(=O)N[C@@H](CC(C)C)C(=O)N[C@H](C(=O)N[C@@H](CCCCNC(=O)COCCOCCNC(=O)CC[C@H](NC(=O)CCCCCCCCCCCCCCCCC(=O)O)C(=O)O)C(=O)NCC(=O)NCC(=O)N1CCC[C@H]1C(=O)N[C@@H](CO)C(=O)N[C@@H](CO)C(=O)NCC(=O)N[C@@H](CCC(=O)O)C(=O)N1CCC[C@H]1C(=O)N1CCC[C@H]1C(=O)N1CCC[C@H]1C(=O)N[C@@H](CCC(=O)O)C(N)=O)[C@@H](C)CC)[C@@H](C)CC [Example 444] (H-Y[Aib]QGT[αMePhe(2-F)]TSD[4Pal][αMeS]I[αMeL]LD[Orn]IAQ[Aib][Orn]FI[dE][αMeY]LIK([AEEA-γGlu-C18 diacid])GGPSSGEPPPE-NH2) |
| 1.81 | 1090 | 11.3 | 0.214 | 0.0177 | 9.71 | CC[C@H](C)[C@H](NC(=O)[C@H](CC(C)C)NC(=O)[C@](C)(Cc1ccc(O)cc1)NC(=O)[C@@H](CCC(=O)O)NC(=O)[C@@H](NC(=O)[C@H](Cc1ccccc1)NC(=O)[C@H](CCCN)NC(=O)C(C)(C)NC(=O)[C@H](CCC(N)=O)NC(=O)[C@H](C)NC(=O)[C@H](CCCCNC(=O)CC[C@H](NC(=O)CC[C@H](NC(=O)CCCCCCCCCCCCCCCCC(=O)O)C(=O)O)C(=O)O)NC(=O)[C@H](CCCN)NC(=O)[C@H](CC(=O)O)NC(=O)[C@H](CC(C)C)NC(=O)[C@](C)(CC(C)C)NC(=O)[C@H](CCC(=O)O)NC(=O)[C@](C)(CO)NC(=O)[C@H](Cc1ccncc1)NC(=O)[C@H](CC(=O)O)NC(=O)[C@H](CO)NC(=O)[C@@H](NC(=O)[C@](C)(Cc1ccccc1F)NC(=O)[C@@H](NC(=O)CNC(=O)[C@H](CCC(N)=O)NC(=O)C(C)(C)NC(=O)[C@@H](N)Cc1ccc(O)cc1)[C@@H](C)O)[C@@H](C)O)[C@@H](C)CC)C(=O)N[C@@H](CCC(=O)O)C(=O)NCC(=O)NCC(=O)N1CCC[C@H]1C(=O)N[C@@H](CO)C(=O)N[C@@H](CO)C(=O)NCC(=O)N[C@@H](CCC(=O)O)C(=O)N1CCC[C@H]1C(=O)N1CCC[C@H]1C(=O)N1CCC[C@H]1C(=O)N[C@@H](CCC(=O)O)C(N)=O [Example 447] (H-Y[Aib]QGT[αMePhe(2-F)]TSD[4Pal][αMeS]E[αMeL]LD[Orn]K([γGlu-γGlu-C18 diacid])AQ[Aib][Orn]FI[dE][αMeY]LIEGGPSSGEPPPE-NH2) |
| 1.35 | 302 | 19.5 | 0.336 | 0.0171 | 4.54 | CC[C@H](C)[C@H](NC(=O)[C@H](CC(C)C)NC(=O)[C@H](Cc1ccc(O)cc1)NC(=O)[C@@H](CCC(=O)O)NC(=O)[C@@H](NC(=O)[C@H](Cc1ccccc1)NC(=O)[C@H](CCCN)NC(=O)C(C)(C)NC(=O)[C@H](CCC(N)=O)NC(=O)[C@H](C)NC(=O)[C@H](CCCCNC(=O)CC[C@H](NC(=O)CC[C@H](NC(=O)CCCCCCCCCCCCCCCCC(=O)O)C(=O)O)C(=O)O)NC(=O)[C@H](CCCN)NC(=O)[C@H](CC(=O)O)NC(=O)[C@H](CC(C)C)NC(=O)[C@](C)(CC(C)C)NC(=O)[C@@H](NC(=O)[C@](C)(CO)NC(=O)[C@H](Cc1ccncc1)NC(=O)[C@H](CC(=O)O)NC(=O)[C@H](CO)NC(=O)[C@@H](NC(=O)[C@](C)(Cc1ccccc1F)NC(=O)[C@@H](NC(=O)CNC(=O)[C@H](CCC(N)=O)NC(=O)C(C)(C)NC(=O)[C@@H](N)Cc1ccc(O)cc1)[C@@H](C)O)[C@@H](C)O)[C@@H](C)CC)[C@@H](C)CC)C(=O)N[C@@H](CCC(=O)O)C(=O)NCC(=O)NCC(=O)N1CCC[C@H]1C(=O)N[C@@H](CO)C(=O)N[C@@H](CO)C(=O)NCC(=O)N[C@@H](CCC(=O)O)C(=O)N1CCC[C@H]1C(=O)N1CCC[C@H]1C(=O)N1CCC[C@H]1C(=O)N[C@@H](CCC(=O)O)C(N)=O [Example 448] (H-Y[Aib]QGT[αMePhe(2-F)]TSD[4Pal][αMeS]I[αMeL]LD[Orn]K([γGlu-γGlu-C18 diacid])AQ[Aib][Orn]FI[dE]YLIEGGPSSGEPPPE-NH2) |

Reference: US20240270821A1, “GIP/GLP1/GCG TRI-RECEPTOR AGONISTS AND USES THEREOF” (priority 2023, published 2024)
